The test system of data set [1] is pAkt (S473). Briefly: pAkt (S473) in cancer cell lines. Type of data set: cell-based.
The test system of data set [2] is H460 cells. Briefly: Cell proliferation (Cell Titer Glo), H460. Type of data set: cell-based, human. The protocol:
(§1) The cell lines H460, Calu6, SW1573, H1703, H292, H358, HCT-116, HT-29, FET, GEO, SW480, Colo205 CBS, BxPC3, HPAC, CFPAC, MiaPaca-2, Panc1, MDA-MB-468, BT-20, MDA-MB-435 H441, H322, A1165, Igrov-1, Ovcar-3, CA-OV-3, MDAH2774, SW626, SKOV-3, Cal-27, RPMI 2650, and MDA-MB-231 were grown in media as prescribed by the ATCC, containing 10% FCS. Hsc-2, Hsc-4 and OVK-18 were obtained from the Riken Cell Bank and were cultured according to the Riken Cell Bank recommended conditions.

Data set [3] relates to tumor cells. As to the kind of experiment: Anti-proliferative activity across tumor cell lines. Format: cell-based.
Data set [4] relates to BxPC3 cells. Briefly: Cell proliferation (Cell Titer Glo), BxPC3. The note with it: 10 μM erlotinib, 72 hours; maximal growth inhibition greater than 50% = high sensitivity. Format: cell-based, human. Here is the method: as §1
Data set [5] concerns H358 cells. As to conditions: 10 μM erlotinib, 72 hours; maximal growth inhibition greater than 50% = high sensitivity.
Procedure: (§2) Measurement of Cell Proliferation: Cell proliferation was determined using the Cell Titer Glo assay (Promega Corporation, Madison, Wisc.). Cell lines were seeded at a density of 3000 cells per well in a 96-well plate. 24 hours after plating cells were dosed with varying concentrations of drug, either as a single agent or in combination. The signal for Cell Titer Glo was determined 72 hours after dosing.
(§3) Analysis of Additivity and Synergy: The Bliss additivism model was used to classify the effect of combining rapamycin and erlotinib as additive, synergistic, or antagonistic. A theoretical curve was calculated for combined inhibition using the equation: Ebliss=EA+EB−EA*EB, where EA and EB are the fractional inhibitions obtained by drug A alone and drug B alone at specific concentrations. […] If the experimentally measured fractional inhibition is less than Ebliss the combination was said to be synergistic. If the experimentally measured fractional inhibition is greater than Ebliss the combination was said to be antagonistic. For dose response curves, the Bliss additivity value was calculated for varying doses of drug A when combined with a constant dose of drug B. This allowed an assessment as to whether drug B affected the potency of drug A or shifted its intrinsic activity. All plots were generated using PRISM® software (Graphpad Software, San Diego, Calif.).
Data set [6] concerns Calu6 cells. As to conditions: 10 μM erlotinib, 72 hours; maximal growth inhibition greater than 50% = high sensitivity.
Procedure: as §2, §3
The test system of data set [7] is Calu-6 NSCLC tumor cells. Briefly: Calu6 xenograft model. The note with it: day 19; Tarceva 100 mg/kg daily oral, or rapamycin 4 mg/kg i.p. day 1, 8, 15. Type of data set: in vivo, mice. An excerpt: Female CD-1 nu/nu mice (Charles River Laboratories, Wilmington, Mass.) were implanted with harvested Calu-6 NSCLC tumor cells in a single subcutaneous site on the flank of the mice in the axillary region. Tumors were allowed to grow to 200+50 mm^3, at which time the animals were sorted into treatment groups (see below) of 8 animals per group, having approximately equal body weight (+/−1 g) within a group, and tattooed on the tail for permanent identification. Tumor volumes and body weights were determined twice weekly. The tumor volume was determined by measuring in two directions with vernier calipers and calculated using the formula: Tumor volume=(length×width^2)/2. The data were plotted as the % change in mean values of tumor volume and body weight for each group. The tumor growth inhibition (% TGI) was determined as % TGI=100(1−Wt/Wc): where Wt is the median tumor volume of the treated group at time x and We is the median tumor volume of the control group at time x. Tarceva was dosed in a 6% Captisol (CyDex, Inc) in WFI (Water for Injection) solution and all control animals were dosed with an equal volume of the vehicle. Tarceva animals were dosed by oral gavage once a day for 18 days and the % TGI measured on day 19. Rapamycin was dosed in 4% ethanol/5% PEG400/5% Tween 80 in WFI. […]

Data set [8] relates to HCT-116 cells. As to conditions: 10 μM erlotinib, 72 hours; maximal growth inhibition greater than 50% = high sensitivity.
Procedure: as §2, §3
In data set [9] the test system is one ovarian and one HNSCC cell line. Briefly: Apoptosis (Caspase 3/7 Glo), one ovarian and one HNSCC cell line. Format: cell-based, human. Here is the method:
as §1

In data set [10] the test system is phosphorylation of S6 (readout for the activity of mTOR). As to the kind of experiment: Western blot of S6 phosphorylation in tumor cell lines. Format: cell-based, human. As to conditions: 2 hours. Here is the method:
Preparation of Protein Lysates and Western Blotting:
With the exception of total ErbB3 (obtained from Santa Cruz Biotechnology, Inc., Santa Cruz, Calif.), all antibodies were obtained from Cell Signaling Technology, Inc. (Danvers, Mass.). For analysis of erlotinib's effect on the phosphorylation of downstream signaling proteins, cell lines were grown to approximately 70% confluency, at which time erlotinib was added at the indicated concentration, and cells were incubated at 37° C. for two hours. Where indicated, 10 ng/ml EGF ligand was added for 5 minutes. The media was removed, cells were washed two times with PBS, and cells were lysed as previously described.

Data set [11] relates to 22 cell lines derived from NSCLC, colon, pancreatic, and breast tumors. Briefly: cells. As to conditions: Homo sapiens, read-out: IC50 value.
Procedure: as §2, §3
Data set [12] relates to H292 cells. Briefly: Cell proliferation (Cell Titer Glo), H292. As to conditions: 10 μM erlotinib, 72 hours; maximal growth inhibition greater than 50% = high sensitivity. Format: cell-based, human. Here is the method: as §1
Data set [13] deals with three ovarian cell lines. As to the kind of experiment: Apoptosis (Caspase 3/7 Glo), ovarian cell lines. As to conditions: 20 μM Compound A or 10 μM erlotinib. Format: cell-based, human. The protocol: as §1
Data set [14] can be described thus: Solubility limit of erlotinib. Type of data set: physicochemical.

Values after ≈ are worked out from the molar mass of the structure shown. “Also recorded” adds a separate entry of the source. Where only a bound is given, the exact number is not on record here.

As usually defined, the solubility is how much of the substance goes into solution per volume. A lower solubility goes with a poorly soluble substance.

With `CO[C@H]1C[C@@H]2CC[C@@H](C)[C@@](O)(O2)C(=O)C(=O)N2CCCC[C@H]2C(=O)O[C@H]([C@H](C)C[C@@H]2CC[C@@H](O)[C@H](OC)C2)CC(=O)[C@H](C)/C=C(\C)[C@@H](O)[C@@H](OC)C(=O)[C@H](C)C[C@H](C)/C=C/C=C/C=C/1C` [rapamycin], in [1], the “cancer cell lines in which pAkt (S473) is inhibited” value is listed as approximately 20% and the “cell lines in which treatment increases pAkt (S473)” value is approximately 65%. Moreover, the Emax in [2] (Homo sapiens, NCI-H460, rapamycin without erlotinib, read-out: maximal efficacy (growth inhibition)) stood at 34%. Further, in [2] (Homo sapiens, NCI-H460, rapamycin without erlotinib, read-out: potency (growth inhibition)), the IC50 amounted to 0.267 nM. The “cell lines in a given tumor type that are insensitive” value in data set [3] is on record as “approximately 50%”.
With `C#Cc1cccc(Nc2ncnc3cc(OCCOC)c(OCCOC)cc23)c1` [erlotinib, [6,7-bis(2-methoxyethoxy)-4-quinazolin-4-yl]-(3-ethynylphenyl) amine], the “sensitivity to growth inhibition by erlotinib” value in [4] is “most sensitive”; in [5], “most sensitive”; in data set [6], “relatively insensitive”; in data set [8] it was “relatively insensitive”; in data set [12] it was “most sensitive”; in data set [2] (10 μM erlotinib, 72 hours, maximal growth inhibition greater than 50% = high sensitivity) it was “relatively insensitive”. The “reduction in tumor growth as single agent” value in data set [7] is reported as “no statistically significant reduction; also recorded: Neither rapamycin or erlotinib showed significant reduction”. In addition, the “apoptosis relative to DMSO treated cells, single agent” value in [9] is given as “modest increase”; in [13], “increased apoptosis”. Further, the “down-regulation of phosphorylation of S6” value in data set [10] (relatively insensitive cell lines that have undergone EMT (H460, Calu6, HCT-116)) is reported as “less pronounced down-regulation”; in [10] (three sensitive epithelial cell lines (H292, H358, BxPC3)) it was “efficiently down-regulate”. Besides, the IC50 in data set [11] is more than 10000 nM. The same compound yielded a solubility in data set [14] of 10 µM (≈ 3.93 µg/mL).
